Reference: patent US20100016225A1, “CONJUGATES COMPRISED OF POLYMER AND HIV gp-41-DERIVED PEPTIDES AND THEIR USE IN THERAPY” (Trimeris, Inc., priority 2002, published 2010)

Columns and labels:
[1] = Bioavailability (circulating half-life) in cannulated mice, plasma fluorescence HPLC; assay type: in vivo; details: mouse, 10 mg/kg
Experimental: It is important to note that standard animal model for determining bioavailability has been correlated with the bioavailability of synthetic peptide in vivo in humans (as described in more detail in U.S. Pat. No. 6,258,782). […] A sample of blood was removed at predetermined time intervals (0, 15, 30 min and 1, 2, 4, 6, and 8 hours) and added to collection tubes containing anticoagulant (EDTA). Plasma was harvested from each of the collection tubes, and then subjected to analysis by fluorescence high pressure liquid chromatography (HPLC). In addition to sample dilutions, serial dilutions of dosing solution were performed in buffer as well as in plasma, and used to generate a standard curve relating peak area to known concentration of peptide. This curve was then used to calculate concentration of peptide in plasma taking into account all dilutions performed and quantity injected onto column.

HIV-1 T20S = assay type: cell-based; details: T20-sensitive clinical isolate, Table 2
Description: (§1) Illustrated in this example is the unexpected result of antiviral potency using the conjugates according to the present invention. […] In determining antiviral activity (e.g., one measure being the ability to inhibit transmission of HIV to a target cell) of the conjugates according to the present invention, used was an in vitro assay which has been shown, by data generated using synthetic peptides derived from either of the HR regions of HIV gp41, to be predictive of antiviral activity observed in vivo.
(§2) The infectivity assays score for reduction of infectious virus titer employing the indicator cell lines MAGI or the CCR5 expressing derivative cMAGI. Both cell lines exploit the ability of HIV-1 that to transactivate the expression of a β-galactosidase reporter gene driven by the HIV-LTR. The β-gal reporter has been modified to localize in the nucleus and can be detected with the X-gal substrate as intense nuclear staining within a few days of infection. The number of stained nuclei can thus be interpreted as equal to the number of infectious virions in the challenge inoculum if there is only one round of infection prior to staining. Infected cells are enumerated using a CCD-imager and both primary and laboratory adapted isolates show a linear relationship between virus input and the number of infected cells visualized by the imager. […] Peptides tested for antiviral activity were diluted into various concentrations, and tested in duplicate or triplicate against an HIV inoculum adjusted to yield approximately 1500-2000 infected cells/well of a 48 well microtiter plate. The peptide (in the respective dilution) was added to the CMAGI or MAGI cells, followed by the virus inocula; and 24 hours later, an inhibitor of infection and cell-cell fusion (e.g., T20) was added to prevent secondary rounds of HIV infection and cell-cell virus spread. The cells were cultured for 2 more days, and then fixed and stained with the X-gal substrate to detect HIV-infected cells. The number of infected cells for each control and peptide dilution was determined with the CCD-imager, and then the IC50 and IC90 were calculated (expressed in μg/ml).
In this first example of antiviral potency, two clinical isolates of HIV were obtained from the same HIV-infected individual. A first isolate, hereby designated “HIV-1 T20S” for ease of description, was sensitive to the antiviral effect of T20 (SEQ ID NO:4) both in vitro and in vivo. […] The results, with the IC50 expressed in ng/ml, are illustrated in Table 2.
Using the methods taught in Example 1 herein, additional conjugates were produced by varying the polymer, the terminus of the synthetic peptide which is operably bound to polymer, and the reactive functionality used for operably binding synthetic peptide to polymer. Two molecules of synthetic peptide (e.g. SEQ ID NO:4) were operably bound to polymer. Such conjugates were then tested for antiviral activity against HIV isolates IIIB, and HIV-1 T20S & HIV-1 T20R (see Table 2 for HIV resistant strains), with the antiviral activity (IC50) expressed in μg/ml. The results for the various conjugates (Table 5, A-Q), terminus of synthetic peptide used for operably binding polymer (Table 5, C-terminus denoted as “C”, N-terminus denoted as “N”) or if an internal lysine was used (Table 5, “Lys 18”, signifying lysine as amino acid residue 18 in the amino acid sequence of the synthetic peptide), antiviral activity (IC50) against HIV-1 strain IIIB (Table 5, “IIIB”), antiviral activity (IC50) against HIV-1 T20S (Table 5, “T20S”) and antiviral activity (IC50) against HIV-1 T20R (Table 5, “T20R”), are illustrated in Table 5.

HIV-1 T20R = assay type: cell-based; details: T20-resistant clinical isolate, Table 2
Description: (§3) The infectivity assays score for reduction of infectious virus titer employing the indicator cell lines MAGI or the CCR5 expressing derivative cMAGI. Both cell lines exploit the ability of HIV-1 that to transactivate the expression of a β-galactosidase reporter gene driven by the HIV-LTR. The β-gal reporter has been modified to localize in the nucleus and can be detected with the X-gal substrate as intense nuclear staining within a few days of infection. The number of stained nuclei can thus be interpreted as equal to the number of infectious virions in the challenge inoculum if there is only one round of infection prior to staining. […] The peptide (in the respective dilution) was added to the CMAGI or MAGI cells, followed by the virus inocula; and 24 hours later, an inhibitor of infection and cell-cell fusion (e.g., T20) was added to prevent secondary rounds of HIV infection and cell-cell virus spread. The cells were cultured for 2 more days, and then fixed and stained with the X-gal substrate to detect HIV-infected cells. The number of infected cells for each control and peptide dilution was determined with the CCD-imager, and then the IC50 and IC90 were calculated (expressed in μg/ml).
In this first example of antiviral potency, two clinical isolates of HIV were obtained from the same HIV-infected individual.
Using the methods taught in Example 1 herein, additional conjugates were produced by varying the polymer, the terminus of the synthetic peptide which is operably bound to polymer, and the reactive functionality used for operably binding synthetic peptide to polymer. Two molecules of synthetic peptide (e.g. SEQ ID NO:4) were operably bound to polymer.

HIV-1 T20R-B = assay type: cell-based; details: virus HIV-1 T20R-B
Description: as §3

HIV-1 T20R-A = assay type: cell-based; details: virus HIV-1 T20R-A
Description: as §1, §2
(§4) IC50 and IC90 are expressed in μg/ml.

HIV-1 T20R-C = assay type: cell-based; details: virus HIV-1 T20R-C
Description: as §1, §2, §4

HIV-1 T20R-D = assay type: cell-based; details: virus HIV-1 T20R-D
Description: as §1, §2, §4

HIV-1 T20S-A = assay type: cell-based; details: virus HIV-1 T20S-A
Description: as §1, §2, §4

HIV-1 T20S-B = assay type: cell-based; details: virus HIV-1 T20S-B
Description: as §1, §2, §4

HIV-1 T20S-C = assay type: cell-based; details: virus HIV-1 T20S-C
Description: as §1, §2, §4

HIV-1 T20S-D = assay type: cell-based; details: virus HIV-1 T20S-D
Description: as §1, §2, §4

3′GIV/CEM4 = assay type: cell-based, HIV; details: virus 3′GIV/CEM4
Description: as §1, §2
(§5) With reference to Table 4, IC50 and IC90 are expressed in μg/ml.

IIIB/CEM4 = assay type: cell-based, HIV; details: virus IIIB/CEM4
Description: as §1, §2, §5

SIM/CEM4 = assay type: cell-based, HIV; details: virus SIM/CEM4
Description: as §1, §2, §5

HIV = details: typical range in words; cited from earlier work

enfuvirtide
half-life ([1]; cannulated mice, intravenous, read-out: t½ (converted)): 96 min
AUC ([1]; iv): 158 µg·h/mL
HIV-1 T20S: IC50 (HIV-1 T20S): 10 ng/mL
HIV-1 T20R: IC50 (HIV-1 T20R): 1,211 ng/ml
IC50 (HIV-1 T20R-B): 1.898 µg/mL
IC90 (HIV-1 T20R-B): 7.179 µg/mL
IC50 (HIV-1 T20R-A): >5 µg/mL
IC90 (HIV-1 T20R-A): >5 µg/mL
IC50 (HIV-1 T20R-C): 1.544 µg/mL
IC90 (HIV-1 T20R-C): 6.285 µg/mL
IC50 (HIV-1 T20R-D): 2.039 µg/mL
IC90 (HIV-1 T20R-D): >5 µg/mL
IC50 (HIV-1 T20S-A): 6 ng/mL
IC90 (HIV-1 T20S-A): 0.078 µg/mL
IC50 (HIV-1 T20S-B): 0.029 µg/mL
IC90 (HIV-1 T20S-B): 0.117 µg/mL
IC50 (HIV-1 T20S-C): 6 ng/mL
IC90 (HIV-1 T20S-C): 0.073 µg/mL
IC50 (HIV-1 T20S-D): 0.018 µg/mL
IC90 (HIV-1 T20S-D): 0.208 µg/mL
IC50 (3′GIV/CEM4): 8 ng/mL
IC90 (3′GIV/CEM4): 0.050 µg/mL
IC50 (IIIB/CEM4): 7 ng/mL
IC90 (IIIB/CEM4): 0.052 µg/mL
IC50 (SIM/CEM4): 0.584 µg/mL
IC90 (SIM/CEM4): 3.398 µg/mL
50% effective concentration values (EC50), blocked infection of T cells (HIV): in the ng/ml range
